Test results as given in PubChem BioAssay (NCI).
Several values for one entry are separate records, joined by “and”; a condition that tells them apart may be missing. Identical values can stand only once.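 Method: 48-hour compound exposure of cells in 96-well plates, five concentrations, linear interpolation of endpoints. GI50: concentration for 50% inhibition of growth. TGI: concentration producing complete growth inhibition.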

Key:
Test in all cases: NCI-60 cell line screen, 48 h
BT-549 breast = tested on: BT-549 breast
MDA-MB-435 = tested on: MDA-MB-435
T-47D breast = tested on: T-47D breast
PC-3 prostate = tested on: PC-3 prostate
M14 melanoma = tested on: M14 melanoma
MDA-MB-231 breast = tested on: MDA-MB-231 breast

SMILES	TGI (BT-549 breast)	TGI (MDA-MB-435)	TGI (T-47D breast) [µM]	TGI (PC-3 prostate)	TGI (M14 melanoma)	TGI (MDA-MB-231 breast)	GI50 (BT-549 breast)	GI50 (MDA-MB-435)	GI50 (T-47D breast)	GI50 (PC-3 prostate)	GI50 (M14 melanoma)	GI50 (MDA-MB-231 breast)
Cn1c(=O)c2[nH]c(CCCc3ccc([N+](=O)[O-])cc3)nc2n(C)c1=O	> 100 µM	> 100 µM	> 100	> 100 µM	> 100 µM	> 100 µM	–	–	–	–	–	–
COc1cc(/C=C/C(=O)c2c(C)nc3ccccc3c2C)ccc1OCCCCOc1cc2c(cc1OC)C(=O)N1CCC[C@H]1C=N2	0.482 µM	0.873 µM	1.36	1.35 µM	> 100 µM	3.51 µM	0.188 µM	0.274 µM	0.333 µM	0.296 µM	1.16 µM	0.606 µM
CCOC(=O)[C@@H](C)C[C@H](Cc1ccccc1)NC(=O)c1csc([C@@H](C[C@H](C(C)C)N(C)C(=O)[C@@H](NC(=O)[C@H]2C[C@H](O)CCN2C)C(C)C)OC(C)=O)n1	0.0915 µM	–	–	> 16.7 µM	–	3.24 µM	0.00283 µM	–	–	0.00187 µM	–	0.00565 µM
O=C(/C=C/c1cccc(S(=O)(=O)Nc2ccccc2)c1)NO	44.5 µM and 71.9 µM	3.48 µM and 2.07 µM	–	51.2 µM and 21.8 µM	12.9 µM and 12.5 µM	19.9 µM and 5.63 µM	3.53 µM and 2.16 µM	0.29 µM and 0.194 µM	0.227 µM and 0.144 µM	0.557 µM and 0.151 µM	0.451 µM and 0.441 µM	0.577 µM and 0.216 µM
O=C1NC(=O)C(c2ccccc2)=C1Nc1ccccc1	> 25 µM	> 25 µM	> 25	> 25 µM	> 25 µM	> 25 µM	> 25 µM	> 25 µM	> 25 µM	> 25 µM	> 25 µM	> 25 µM
O=C1/C(=C\c2ccccc2)CN(C(=O)c2ccccc2)C/C1=C\c1ccccc1	3.58 µM	5 µM	19.9	7.86 µM	4.79 µM	5.02 µM	1.86 µM	1.61 µM	4.93 µM	2.27 µM	2.1 µM	2.2 µM
CCCCN(CC)CCCCCCCCCCN1CCCc2cc(OC)ccc21	12.5 µM	7.06 µM	5.83	12.7 µM	4.99 µM	7.04 µM	3.63 µM	2.41 µM	2.11 µM	3.06 µM	2.11 µM	2.26 µM
COC(=O)[C@@H](C)C[C@H](Cc1ccccc1)NC(=O)c1csc([C@@H](C[C@H](C(C)C)N(C)C(=O)C2(NC(=O)[C@H]3CCCCN3C)CCC2)OC(C)=O)n1	0.0157 µM	0.00179 µM and < 0.0025 µM	–	> 25 µM	0.0564 µM and 0.0107 µM	0.152 µM	0.0025 µM	0.000325 µM and < 0.0025 µM	–	0.00406 µM and 0.0025 µM	0.00413 µM and 0.0025 µM	0.00584 µM and 0.0025 µM
Brc1ccc(Nc2nc3ccccc3nc2Nc2ccc(Br)cc2)cc1	7.98 µM	4.9 µM	7.09	10.4 µM	–	3.01 µM	2.44 µM	1.51 µM	0.936 µM	0.637 µM	–	1.46 µM
O=C1c2cccnc2C(=O)c2c1c(C(=O)OCCc1ccccn1)c1ccccn21	2.11 µM	3.72 µM	8.39	6.57 µM	0.33 µM	> 100 µM	0.0671 µM	0.0524 µM	1.71 µM	0.0563 µM	0.0262 µM	1.48 µM
Oc1ccc(Cc2ccc(O)c(C3CC(c4ccc(Cl)cc4)=NN3)c2)cc1C1CC(c2ccc(Cl)cc2)=NN1 (stereo unspecified)	23.3 µM	20.2 µM	> 39.7	> 100 µM	> 39.3 µM	8.94 µM	4.19 µM	3.23 µM	3.15 µM	3.67 µM	3.93 µM	2.49 µM
CN(CSc1ccc(Cl)cc1)c1ccc(CSc2ccc(Cl)cc2)cc1	3.6 µM	11.9 µM	72	25.8 µM	14.9 µM	5.9 µM	1.16 µM	2.68 µM	4.22 µM	3.27 µM	4.09 µM	1.8 µM
O=C(Nc1ccc(I)cc1)c1cccc([N+](=O)[O-])c1O	19 µM	> 100 µM	12.6	14.6 µM	49.5 µM	> 100 µM	3.01 µM	3.07 µM	2.98 µM	2.72 µM	3.54 µM	6.03 µM
COc1ccccc1NC(=O)C(=O)Cc1cnc2ccccc2n1	> 100 µM	> 100 µM	> 100	> 100 µM	> 100 µM	> 100 µM	–	–	–	–	–	–
CC(C)OCc1cc(CN2CCN(c3cccc(Cl)c3)CC2)c(O)c2ncccc12	19.8 µM	11.4 µM	18.4	16.9 µM	–	14.2 µM	3.26 µM	0.923 µM	0.556 µM	0.525 µM	–	0.611 µM
N#Cc1c2ccccc2c2nnc3ccc(C(F)(F)F)cc3n12	44.6 µM	> 100 µM	> 100	> 100 µM	–	> 100 µM	21 µM	32.5 µM	> 100 µM	61.1 µM	–	88.1 µM
NS(=O)(=O)c1ccc(N=C2C(=O)Nc3ccccc32)cc1	> 100 µM	72.7 µM	> 100	> 100 µM	> 100 µM	> 100 µM	–	–	–	–	–	–
c1ccc(-c2cn(-c3ccccc3)c(-c3ccccc3)n2)cc1	30.5 µM	24.7 µM	26.2	45.6 µM	23.8 µM	36.5 µM	16 µM	7.58 µM	9.3 µM	17.1 µM	11 µM	18.4 µM
NCCCNc1nc2ccc(Cl)cc2c2c(=O)c3cc(F)ccc3sc12	29.6 µM	4.2 µM	34.3	14.2 µM	14.2 µM	4.09 µM	14.3 µM	1.93 µM	9.65 µM	3.43 µM	3.6 µM	1.78 µM
N#Cc1ccc(C(C2C(=O)NC(=O)NC2=O)C2C(=O)NC(=O)NC2=O)cc1	–	–	–	–	> 100 µM	–	–	–	–	–	–	–
